# Results as given in US10287267B2, “Isoquinolin-3-yl carboxamides and preparation and use thereof” (Samumed, LLC, priority 2016, dated 2019).
# How the values were obtained:
# [1] = system: Wnt pathway (Sp5-Luc reporter, TCF/LEF binding sites) in SW480 colon carcinoma cells; assay: Screening assay for Wnt activity: Sp5-Luc reporter gene assay; type: cell-based, human; conditions: Homo sapiens; Sp5-Luc reporter, SW480 cells, 36 to 48 hours;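 further: firefly luciferase luminescence read in stably transduced SW480 cells carrying the Sp5 promoter reporter with eight TCF/LEF sites, compounds given in 0.1% DMSO final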
# Protocol: The screening assay for Wnt activity is described as follows.
# Following incubation, 15 μl of BriteLite Plus luminescence reagent (Perkin Elmer) was added to each well of the 384-well assay plates. The plates were placed on an orbital shaker for 2 min and then luminescence was quantified using the Envision (Perkin Elmer) plate reader.
# [2] = biological target: recombinant GSK3β kinase (Homo sapiens (Human), UniProt P49841); assay: GSK3β kinase assay (Ser/Thr 09 peptide Z-lyte FRET); type: biochemical; conditions: 46 μM ATP, 1 h room temperature;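 further: kinase activity read as coumarin to fluorescein emission ratio, 11-point threefold dilutions from 10 µM to 0.0003 µM in duplicate, unphosphorylated and phosphorylated peptide as 0% and 100% controls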
# [3] = system: Tau phosphorylation at Ser396 (pSer396); assay: Tau phosphorylation assay (pSer396 ELISA / western blot) in SH-SY5Y cells; type: cell-based, human; conditions: Homo sapiens; SH-SY5Y cells, overnight (16-18 h) exposure; read-out: pSer396 Tau EC50;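 further: EC50 for reduction of Tau pSer396 in lysed cells, measured by colorimetric ELISA or chemiluminescent western blot, both using the same pSer396 antibody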
# [4] = system: α-smooth muscle actin (αSMA) positive LL29 cells; assay: Inhibition of fibrotic process: αSMA in TGF-β1 treated primary human fibroblasts from IPF patients; type: cell-based; conditions: Homo sapiens, Fibroblast; for EC50: 96 h, Table 8, LL29 fibroblasts from IPF patients, TGF-β1 20 ng/mL, 4 days, dose-response 10 μM to 0.94 nM; for inhibition at 10 µM: read-out: percent value in parentheses beside EC50 >10 μM;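 on all read-outs here: controls were TGF-β1 stimulated wells with DMSO vehicle (positive) and cells given DMSO alone (negative), cultured in F12 medium with 1% fetal bovine serum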
# [5] = system: IL-6; assay: IL-6 inhibition in LPS-stimulated human peripheral blood mononuclear cells (HTRF); type: cell-based; conditions: Homo sapiens, PBMC; for EC50: Table 9, huPBMCs, LPS 50 ng/mL, 22 hours, dose-response starting from 10 μM; for inhibition at 10 µM: read-out: percent value in parentheses beside EC50 >10 μM;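 on all read-outs here: IL-6 detected by HTRF with an XL665- and Cryptate-labelled anti-IL-6 antibody pair, samples run in duplicate, EC50 obtained from a four-parameter Levenberg-Marquardt curve fit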
# Protocol: After 22 hour incubation, a mixture of anti-IL6 XL665 and anti-IL-6 Cryptate diluted in reconstitution buffer (Catalog #62IL6PEC, Cisbio Inc., Bedford, Mass.) was added to each well. […] All samples were processed in duplicate. […] EC50 was determined using software generated by Dotmatics Limited (Windhill Bishops Stortford Herts, UK) using the Levenberg-Marquardt 4 parameter fitting procedure with finite different gradients.
# [6] = system: SW480 colon carcinoma cells; assay: Cell viability assay (CellTiter-Glo); type: cell-based, human; conditions: Homo sapiens, 96 h; SW480 cells, CellTiter-Glo, four days incubation
# [7] = biological target: recombinant DYRK1A kinase (Homo sapiens (Human), UniProt Q13627); assay: DYRK1A kinase assay (Ser/Thr 18 peptide Z-lyte FRET); type: biochemical; conditions: 30 μM ATP, 1 h room temperature;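 further: Read-out is the coumarin to fluorescein emission ratio, referenced to unphosphorylated (0%) and phosphorylated (100%) Ser/Thr 18 peptide controls, values from dose-response curves by non-linear regression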
# Sequence of recombinant GSK3β kinase (P49841 whole entry): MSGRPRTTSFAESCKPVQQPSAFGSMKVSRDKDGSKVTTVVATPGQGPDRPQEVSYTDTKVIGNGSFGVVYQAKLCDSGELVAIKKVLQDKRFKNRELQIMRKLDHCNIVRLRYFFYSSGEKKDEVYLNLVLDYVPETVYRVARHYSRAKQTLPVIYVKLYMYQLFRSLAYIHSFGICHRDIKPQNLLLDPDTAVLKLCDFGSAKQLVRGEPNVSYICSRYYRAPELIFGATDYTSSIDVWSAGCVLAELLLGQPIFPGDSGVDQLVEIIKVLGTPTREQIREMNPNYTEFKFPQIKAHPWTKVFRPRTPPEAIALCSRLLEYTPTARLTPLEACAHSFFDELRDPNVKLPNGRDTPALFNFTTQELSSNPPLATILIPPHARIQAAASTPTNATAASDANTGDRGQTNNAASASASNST
Compound,EC50 [1],EC50 [2],EC50 [3],EC50 [4],EC50 [5],EC50 [6],EC50 [7],inhibition at 10 µM [4],inhibition at 10 µM [5]
"Cn1cc(-c2ccc3cnc(NC(=O)C4CCC(F)(F)CC4)cc3c2)cn1 [Compound 3, 4,4-Difluoro-N-(6-(1-methyl-1H-pyrazol-4-yl)isoquinolin-3-yl) cyclohexanecarboxamide]",1700 nM,38 nM,288 nM,103 nM,792 nM,2800 nM,3.7 nM,–,–
"CO[C@H]1CC[C@H](C(=O)Nc2cc3cc(-c4cnn(C)c4)ccc3cn2)CC1 [Compound 4, trans-4-Methoxy-N-(6-(1-methyl-1H-pyrazol-4-yl)isoquinolin-3-yl) cyclohexane-1-carboxamide]",983 nM,80 nM,671 nM,68 nM,1130 nM,1940 nM,1.8 nM,–,–
"Cn1cc(-c2ccc3cnc(NC(=O)[C@H]4CC[C@H](N5CCOCC5)CC4)cc3c2)cn1 [Compound 6, trans-N-(6-(1-Methyl-1H-pyrazol-4-yl)isoquinolin-3-yl)-4-morpholinocyclohexane-1-carboxamide]",1110 nM,65 nM,475 nM,> 10000 nM,1290 nM,1260 nM,1.3 nM,45.6%,–
"Cn1cc(-c2ccc3cnc(NC(=O)[C@H]4CC[C@H](CN5CC(F)C5)CC4)cc3c2)cn1 [Compound 10, trans-4-((3-Fluoroazetidin-1-yl)methyl)-N-(6-(1-methyl-1H-pyrazol-4-yl)isoquinolin-3-yl)cyclohexane-1-carboxamide]",277 nM,51 nM,227 nM,> 10000 nM,399 nM,324 nM,1.3 nM,39.6%,–
"CN1CCN(C[C@H]2CC[C@H](C(=O)Nc3cc4cc(-c5cnn(C)c5)ccc4cn3)CC2)CC1 [Compound 14, trans-N-(6-(1-Methyl-1H-pyrazol-4-yl)isoquinolin-3-yl)-4-((4-methylpiperazin-1-yl)methyl)cyclohexane-1-carboxamide]",354 nM,59 nM,408 nM,35 nM,643 nM,898 nM,1.5 nM,–,–
"Cn1cc(-c2ccc3cnc(NC(=O)C4CNC4)cc3c2)cn1 [Compound 16, N-(6-(1-Methyl-1H-pyrazol-4-yl)isoquinolin-3-yl)azetidine-3-carboxamide]",> 10000 nM,24 nM,> 10000 nM,1270 nM,2170 nM,7840 nM,3.9 nM,–,–
"Cn1cc(-c2ccc3cnc(NC(=O)CN4CC[C@H](F)C4)cc3c2)cn1 [Compound 69, (S)-2-(3-Fluoropyrrolidin-1-yl)-N-(6-(1-methyl-1H-pyrazol-4-yl)isoquinolin-3-yl)acetamide]",3700 nM,13 nM,383 nM,394 nM,2160 nM,3930 nM,6.2 nM,–,–
"Cn1cc(-c2ccc3cnc(NC(=O)[C@@H]4CCCO4)cc3c2)cn1 [Compound 71, (S)—N-(6-(1-Methyl-1H-pyrazol-4-yl)isoquinolin-3-yl)tetrahydrofuran-2-carboxamide]",3900 nM,62 nM,1510 nM,> 10000 nM,6730 nM,8100 nM,13.6 nM,33.4%,–
"CC(C)N1CCC(C(=O)Nc2cc3cc(-c4cnn(C)c4)ccc3cn2)CC1 [Compound 75, 1-Isopropyl-N-(6-(1-methyl-1H-pyrazol-4-yl)isoquinolin-3-yl)piperidine-4-carboxamide]",520 nM,64 nM,227 nM,148 nM,806 nM,1320 nM,2.6 nM,–,–
"Cn1cc(-c2ccc3cnc(NC(=O)C4CCN(C5COC5)CC4)cc3c2)cn1 [Compound 86, N-(6-(1-methyl-1H-pyrazol-4-yl)isoquinolin-3-yl)-1-(oxetan-3-yl)piperidine-4-carboxamide]",4000 nM,48 nM,682 nM,> 10000 nM,1770 nM,> 10000 nM,2.5 nM,14.6%,–
"Cn1cc(-c2ccc3cnc(NC(=O)C4CCN(CC5(C)COC5)CC4)cc3c2)cn1 [Compound 87, N-(6-(1-Methyl-1H-pyrazol-4-yl)isoquinolin-3-yl)-1-((3-methyloxetan-3-yl)methyl)piperidine-4-carboxamide]",1000 nM,32 nM,414 nM,81 nM,2940 nM,3160 nM,3.3 nM,–,–
"COCCN1CCC(C(=O)Nc2cc3cc(-c4cnn(C)c4)ccc3cn2)CC1 [Compound 89, 1-(2-Methoxyethyl)-N-(6-(1-methyl-1H-pyrazol-4-yl)isoquinolin-3-yl) piperidine-4-carboxamide]",765 nM,64 nM,364 nM,137 nM,1140 nM,738 nM,2.7 nM,–,–
"CC(C)OCCN1CCC(C(=O)Nc2cc3cc(-c4cnn(C)c4)ccc3cn2)CC1 [Compound 90, 1-(2-Isopropoxyethyl)-N-(6-(1-methyl-1H-pyrazol-4-yl)isoquinolin-3-yl) piperidine-4-carboxamide]",1100 nM,42 nM,302 nM,96 nM,1080 nM,1170 nM,3 nM,–,–
"Cn1cc(-c2ccc3cnc(NC(=O)C4(F)CCNCC4)cc3c2)cn1 [Compound 91, 4-Fluoro-N-(6-(1-methyl-1H-pyrazol-4-yl)isoquinolin-3-yl)piperidine-4-carboxamide]",> 10000 nM,838 nM,4700 nM,> 10000 nM,> 10000 nM,9590 nM,10.5 nM,17.3%,40%
"CN1CCC(F)(C(=O)Nc2cc3cc(-c4cnn(C)c4)ccc3cn2)CC1 [Compound 92, 4-Fluoro-1-methyl-N-(6-(1-methyl-1H-pyrazol-4-yl)isoquinolin-3-yl) piperidine-4-carboxamide]",1600 nM,361 nM,3900 nM,> 10000 nM,> 10000 nM,983 nM,6.5 nM,16.7%,33%
"CC(C)CN1CCC(F)(C(=O)Nc2cc3cc(-c4cnn(C)c4)ccc3cn2)CC1 [Compound 96, 4-Fluoro-1-isobutyl-N-(6-(1-methyl-1H-pyrazol-4-yl)isoquinolin-3-yl) piperidine-4-carboxamide]",> 10000 nM,350 nM,2000 nM,677 nM,> 10000 nM,> 10000 nM,7.1 nM,–,5.8%
"Cn1cc(-c2ccc3cnc(NC(=O)[C@H]4CCCNC4)cc3c2)cn1 [Compound 110, (S)—N-(6-(1-Methyl-1H-pyrazol-4-yl)isoquinolin-3-yl)piperidine-3-carboxamide]",1100 nM,34 nM,636 nM,286 nM,484 nM,1050 nM,4.7 nM,–,–
"CC(C)CN1CCC[C@H](C(=O)Nc2cc3cc(-c4cnn(C)c4)ccc3cn2)C1 [Compound 112, (S)-1-Isobutyl-N-(6-(1-methyl-1H-pyrazol-4-yl)isoquinolin-3-yl)piperidine-3-carboxamide]",3200 nM,292 nM,1750 nM,546 nM,2990 nM,6420 nM,20.6 nM,–,–
"Cn1cc(-c2ccc3cnc(NC(=O)CN4CCC(C(F)F)CC4)cc3c2)cn1 [Compound 295, 2-(4-(Difluoromethyl)piperidin-1-yl)-N-(6-(1-methyl-1H-pyrazol-4-yl)isoquinolin-3-yl)acetamide]",2570 nM,20 nM,430 nM,4460 nM,> 10000 nM,–,2.8 nM,–,5.9%
"O=C(Nc1cc2cc(-c3cnco3)ccc2cn1)C1CCOCC1 [Compound 976, N-(6-(Oxazol-5-yl)isoquinolin-3-yl)tetrahydro-2H-pyran-4-carboxamide]",2960 nM,146 nM,536 nM,1170 nM,–,3880 nM,6.1 nM,–,–
"Cn1cc(-c2ccc3cnc(NC(=O)OC(C)(C)C)cc3c2)cn1 [Compound 1025, tert-Butyl (6-(1-methyl-1H-pyrazol-4-yl)isoquinolin-3-yl)carbamate]",> 10000 nM,100 nM,> 10000 nM,> 10000 nM,> 10000 nM,–,78 nM,31.4%,13.6%
"CN1CCC(NC(=O)Nc2cc3cc(-c4cnn(C)c4)ccc3cn2)CC1 [Compound 1090, 1-(6-(1-Methyl-1H-pyrazol-4-yl)isoquinolin-3-yl)-3-(1-methylpiperidin-4-yl)urea]",722 nM,288 nM,969 nM,–,484 nM,994 nM,6.9 nM,–,–
